{
  "source": "patent US7495147B2",
  "about": "“Neuregulin-1 transgenic mouse and methods of use” (deCODE genetics ehf., priority 2000, dated 2009)",
  "test_system": "NRG1TM hypomorphic mice",
  "experiment": "open field test of locomotor activity in NRG1TM hypomorphic mice and litter-mate controls",
  "format": "in vivo, mouse",
  "details": "litter-mate control (wild-type) mice; clozapine 1 mg/kg i.p. 25 min prior to testing",
  "method": "Male NRG1TM hypomorphs, ErbB4 hypomorphs and litter-mate controls for each line were bred at Charles River Laboratories USA by crossing to a C57B16 background. They were shipped to the testing laboratory at PsychoGenics Inc. NY, USA (six weeks prior to behavioral testing) where they were housed in groups of 3-5 related mice per cage. The open field study was conducted when the male mice were 5 to 6 months of age. Group housed mice were brought into the experimental room and allowed to acclimate for one hour prior to testing. Each mouse was placed for 30 minutes in a square open field box (17×17×12 inch). Up to eight animals were tested at one time, one animal in each of eight arenas, under low lighting conditions (provided by a 15 watt red lamp). The automated infrared beam array system measured locomotion in the center and periphery of the test arena. Activity data were collected in 5 min intervals over the 30 min open field session and analyzed with a series of repeated measures analysis of variance (ANOVA) with session interval as a within-subject factor and genotype as a between-subject factor. Clozapine (1 mg/kg in 1% Tween 20, pH 6.0) was injected intraperitoneally (i.p.) 25 min before behavioral testing. Total activity data from the study with clozapine were analyzed with a two-tailed, Student's t-test. Naïve mice were used for these experiments. […]",
  "data": [
    {"smiles": "CN1CCN(C2=Nc3cc(Cl)ccc3Nc3ccccc32)CC1", "note": "[Clozapine, clozapine]", "values": [
      {"measurement": "open field activity of litter-mate control mice", "value": "no effect"}
    ]}
  ]
}
